Measurements taken from US20200123127A1, “REMOVAL OF SENESCENCE-ASSOCIATED MACROPHAGES” (EVERON BIOSCIENCES, INC., priority 2016, published 2020).
Read-outs that look alike come from different tables or passages of the source.

Experiments:
B16 cells = assay: In vitro growth and viability of B16 cells (resazurin); assay type: cell-based; details: 72 hour exposure, up to 20 uM
Description: FIG. 4. Efficacy of A1.1 analogs in the senescence-enhanced B16 metastasis model. (A) Quantification of metastatic nodules by H&E morphometric analysis, and the resulting reduction in tumor burden (%) compared to vehicle control. (B) Quantitation morphometric analysis of lungs excised from irradiated mice treated with analogs of A1.1 post-inoculation of B16 cell intravenously, along with quantitation of morphometric analysis, are provided. (C) In vitro testing of A1.1 and analogs against the growth and viability of B16 cells, as assessed by the resazurin viability assay after 72 hour exposure to compounds compared to non-treated controls.
The role of senescent cells in the promotion of metastatic potential of cancer cells has also been described [Patent WO 2013090645 A1; Campisi, J. (2015). Cancer and Aging: Rival Demons]. […] To test the efficacy of A1.1, irradiated (11 Gy followed by bone-marrow transplantation) and non-irradiated C57BL/6 mice received B16 melanoma cells via tail vein injection were subsequently (72 hours later) administered A1.1 (20 mg/kg) intraperitoneally once a day for 5 consecutive days.
Synthesized analogs were also tested in vivo, to assess whether optimized structures are capable of showing activity against senescence-mediated B16 lung metastasis in irradiated mice (FIG. 4B). […]

[1] = test system: human neonatal dermal fibroblasts (NDF); assay: Resazurin viability assay, senescent vs proliferating/quiescent human neonatal dermal fibroblasts; assay type: cell-based; details: for IC50: Homo sapiens, Fibroblast, 72 h, 72 hour exposure; for Selectivity (Prolif/Sen): NDF
Description: FIG. 2. Compound A1.1 selectively kills senescent human neonatal dermal fibroblasts (NDF) cells in a dose- and time-dependent manner. (FIG. 2A) Normal proliferating and quiescent NDF cells, and the cells made senescent via exposure to genotoxic agents (doxorubicin, bleomycin and gamma-irradiation) were incubated with increasing concentrations of A1.1. At 72 hours post-treatment cell viability was measured via resazurin viability assay. (FIG. 2B) Compound A1.1 selectively kills senescent NDF cells in time-dependent manner discriminating between acute genotoxic stress and senescence. Acutely damaged NDF cells were irradiated with 4 Gy gamma-irradiation 24 hours before A1.1 treatment. Senescent NDF cells were treated with bleomycin or irradiated with 15 Gy and incubated for 14 days to induce senescence before treatment with A1.1. Proliferating acutely damaged and senescent NDF cell were treated with 1.875-30 μM A1.1 and viable cells were measured at 72 hours after treatment. Average and standard deviation are shown.
Normal proliferating and quiescent NDF cells, and the cells made senescent via exposure to genotoxic agents (doxorubicin, bleomycin and gamma-irradiation) were incubated with increasing concentrations of A1.1. At 72 hours post-treatment cell viability was measured via resazurin viability assay.
A1.1 selectively kills senescent human neonatal dermal fibroblasts (NDF) cells in time-dependent manner discriminating between acute genotoxic stress and senescence ([…]). Acutely damaged NDF cells were irradiated with 4 Gy gamma-irradiation 24 hours before A1.1 treatment. Senescent NDF cells were treated with bleomycin or irradiated with 15 Gy and incubated for 14 days to induce senescence before treatment with A1.1.
Cytotoxicity of A1.1 analogs against bleomycin-induced senescent human NDFs and rat dermal fibroblasts (RDFs). Activity of analogs was assessed from dose-response curves against irradiation- or bleomycin-induced senescent and proliferating cells to calculate IC50s (uM). The fold difference of proliferating versus senescent cell IC50s was used to assess the level of specific anti-senescent activity of the compounds.
For generation senescent human neonatal dermal fibroblasts (NDFs) and adult rat dermal fibroblasts (RDFs), cells are treated at ˜10 ug/ml bleomycin for 3 days (for bleomycin-induced senescence) or irradiated once at 20 Gy using a gamma irradiator (Cs source), followed by at least 7 day recovery in fresh medium for induction of senescence. Senescent and non-senescent (proliferating) cells for each cell line are plated into 384-w plate, followed by 72 hour exposure to a dose titration of compounds. Viability measurements are estimated using the resazurin viability assay. Using GraphPad Prism 5, the IC50 values are calculated from the non-linear regression of log-transformed compound concentrations versus dose-response normalized to background and non-treated controls.

[2] = test system: SK-Mel-103 melanoma cells; assay: Anti-senescent cytotoxicity, senescent vs proliferating SK-Mel-103; assay type: cell-based, Human; details: for IC50: Homo sapiens
[3] = test system: chronologically aging mice; assay: Survival and frailty index of chronologically aging mice; assay type: in vivo, mouse; details: for survival rates vs control groups: OT-82: after 6 courses, 111 weeks of age, asenins: treated weeks 77-97, at 112 weeks of age
Description: FIG. 11. OT-82 effects on survival and frailty index of old mice. (A) Male and female mice were treated with OT-82 or with vehicle alone as a negative control. Survival was measured over the course of six treatments.
FIG. 12. Effects of asenins TA-3899 and TA-4812 on survival and frailty index of old mice. Results are provided on a background of FI of mice of the similar age, aged normally without any treatments (black color). Difference between FI of males receiving 3899 and intact mice is statistically significant (p=0.02).
Frailty Index (FI) was determined for individual mice as described previously (Antoch et al. Aging. 2017; 9: 1-12) using a 26 week-old group as a “young mouse” reference. For each mouse, various parameters were measured. These parameters include non-invasive measurements, including age, body weight, grip strength, diastolic blood pressure, and tail blood flow. Additional blood chemistry measurements were also determined, including white blood cell count, neutrophil count, neutrophil percentage, lymphocyte percentage, monocyte percentage, eosinophil percentage, red blood cell count, hemoglobin, hematocrit, mean corpuscular volume, mean corpuscular hemoglobin, mean corpuscular hemoglobin concentration, platelet count, and mean platelet volume. For each parameter mean value and standard deviation were calculated. Animals differing by more than one standard deviation (STDEV) from mean value in any single parameter were excluded from the reference group. Values for each measured parameter were compared with corresponding values for the reference group and assigned a score. The number of deficits an individual mouse expressed was calculated as a ratio of total number of parameters measured and this value is referred to as the frailty index.
Asenins TA-3899 and TA-4812 were evaluated for their effects on survival and frailty index in a model of chronologic aging mice. Treatment lasted for 20 weeks (weeks 77-97 of age). […] Frailty index of males was measured at week 109.

[4] = test system: p16(Ink4a) expression in adipose tissue macrophages; assay: Poly(I:C) in chronologically aged p16Ink4a/Luc mice; assay type: in vivo, mouse
Description: Given that macrophages contribute to the elevated p16(Ink4a) expression observed in aged mice, we investigated whether this expression was susceptible to immunomodulatory regulation. Chronologically aged mice (83-weeks old) were treated with Poly(I:C) and the luminescence of individual organs was quantitated via IVIS. […] Thus, the observed decrease in the luciferase signal in adipose tissue upon treatment with Poly(I:C) was not accompanied by the depletion of macrophages.

[5] = proliferating NDF, resazurin, read-out: IC50 NDFprolif
[6] = senescent NDF, bleomycin-induced, resazurin, read-out: IC50 NDFsen.bleo
[7] = light or radiation study, senescent NDF, irradiation-induced, resazurin, read-out: IC50 NDFsen.irr

CCOC(=O)c1sc(SCc2ccccc2)c2c1CC(c1ccc(OC)cc1)C/C2=N\O (stereo not drawn) [Example A1.1]
B16 growth in vitro (B16 cells): did not inhibit | IC50 [1, 5]: > 20 µM | IC50 [1, 6]: < 5 µM | IC50 [1, 7]: < 10 µM | Selectivity (Prolif/Sen) ([1]; Bleomycin): 5.3 | Selectivity (Prolif/Sen) ([1]; Irradiation): 2.9 | effect on viability of proliferating or quiescent NDF cells ([1]; concentrations up to 10 μM, 72 hours, resazurin): no significant effect | IC50 ([2]; SK-Mel-103, senescence induction: Bleomycin, read-out: Activity against Senescent Cells (IC50; uM)): 5.6 µM | IC50 ([2]; SK-Mel-103 proliferating, read-out: Activity against Proliferating Cells (IC50; uM)): 18.5 µM | Selectivity (Prolif/Sen) ([2]; SK-Mel-103, Bleomycin): 3.3

COc1ccc(C2CC(=NO)c3c(SCc4ccccc4)sc(C(=O)NCc4cccc(F)c4)c3C2)cc1 (stereo not drawn) [Example A1.6, 3-(Benzylthio)-N-(3-fluorobenzyl)-4-(hydroxyimino)-6-(4-methoxyphenyl)-4,5,6,7-tetrahydrobenzo[c]thiophene-1-carboxamide]
survival rates vs control groups [3]: no statistical significance | IC50 [1, 5]: > 20 µM | IC50 [1, 6]: < 5 µM | IC50 [1, 7]: < 5 µM

O=C(NCCCc1cn[nH]c1)c1ccc(-c2ccncc2)c(C#Cc2ccc(F)cc2)c1 [OT-82]
survival rates vs control groups [3]: no effects on survival rates | frailty index (FI) of males ([3]; OT-82, chronically aged mice): positive effects | survival of treated males ([3]; after 6 courses of treatment, 111 weeks of age (55% in vehicle control group)): 45% | survival of treated females ([3]; after 6 courses of treatment, 111 weeks of age (60% in vehicle group)): 65%

Poly(I:C)
luminescence of other tissues (spleen, lungs, kidney, liver) ([4]; 83-weeks old mice): no significant effects | reduction in luminescence from visceral adipose tissue ([4]; 83-weeks old mice, IVIS of organs): ~4 fold | luciferase activity from isolated stromal vascular fraction vs saline ([4]; per cell or per gram of fat): significantly decreased
